Key:
Test in all cases: KINOMEscan Max
Format in all cases: binding
IKK-epsilon = molecular target: T1, IKK-epsilon (Homo sapiens, UniProt Q14164)
T1 construct: purchased Ambit Kinomescan (contract panel, KINOMEscan Max)
Method: (§1) Kinase panel profiling was performed at Ambit Kinomescan (http://www.ambitbio.com/technology/) using the “KINOMEscan™ Max” assay platform, a high-throughput method for screening small molecule compounds against large numbers of human kinases. KINOMEscan™ is based on a competition binding assay that quantitatively measures the ability of a compound to compete with an immobilized, active-site directed ligand. The assay is performed by combining three components: DNA-tagged kinase; immobilized ligand; and a test compound. The ability of the test compound to compete with the immobilized ligand is measured via quantitative PCR of the DNA tag. For a description of Ambit's assay protocol, see Fabian et al. A small molecule-kinase interaction map for clinical kinase inhibitors. Nat. Biotechnol. 23, 329-336 (2005).

NEK6 = NEK6 (Homo sapiens, UniProt Q9HC98)
Method: as §1

[1] = molecular target: T2, RSK4(Kin.Dom.2-C-terminal) (Homo sapiens, UniProt Q9UK32); details: 1 μM
T2 construct: RSK4(Kin.Dom.2-C-terminal); DNA tag (qPCR read-out)
T2 sequence (Q9UK32 426-683 limits assumed): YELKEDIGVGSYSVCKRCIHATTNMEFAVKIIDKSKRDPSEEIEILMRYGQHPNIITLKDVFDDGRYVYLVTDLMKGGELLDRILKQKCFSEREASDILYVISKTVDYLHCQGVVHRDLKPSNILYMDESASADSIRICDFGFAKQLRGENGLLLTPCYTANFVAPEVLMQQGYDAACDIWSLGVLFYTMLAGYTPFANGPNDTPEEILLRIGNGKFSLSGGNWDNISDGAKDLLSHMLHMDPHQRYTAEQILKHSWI
Method: as §1

TSSK1B = molecular target: T3, TSSK1B (Homo sapiens, UniProt Q9BXA7)
T3 construct: purchased Ambit Kinomescan (contract screening service)
Method: as §1

ERK3 = ERK3 (Homo sapiens, UniProt Q16659)
Method: as §1

MAPKAPK5 = molecular target: T4, MAPKAPK5 (Homo sapiens, UniProt Q8IW41)
T4 construct: purchased Ambit Kinomescan (contract panel)
Method: as §1

NIM1 = NIM1 (Homo sapiens, UniProt Q8IY84)
Method: as §1

EPHA4 = molecular target: T5, EPHA4 (Homo sapiens, UniProt P54764)
T5 construct: purchased Ambit (KINOMEscan Max panel service)
Method: as §1

BRSK1 = molecular target: T6, BRSK1 (Homo sapiens, UniProt Q8TDC3)
T6 construct: DNA tag (qPCR label); purchased Ambit Kinomescan (contract screening)
Method: as §1

ITK = molecular target: T7, ITK (Homo sapiens, UniProt Q08881); details: 1 μM
T7 construct: purchased Ambit Kinomescan (contract panel)
Method: as §1

[2] = molecular target: ABL1(F317I)-phosphorylated (Homo sapiens, UniProt P00519, F317I)
Method: as §1

MLK1 = MLK1 (Homo sapiens, UniProt P80192)
Method: as §1

NEK7 = molecular target: T8, NEK7 (Homo sapiens, UniProt Q8TDX7)
T8 construct: DNA tag (qPCR read-out)
Method: as §1

MAP4K4 = molecular target: T9, MAP4K4 (Homo sapiens, UniProt O95819)
T9 construct: purchased Ambit Kinomescan (contract screening)
Method: as §1

MET(Y1235D) = molecular target: T10, MET(Y1235D) (Homo sapiens, UniProt P08581, Y1235D); details: 1 μM
T10 construct: purchased Ambit (KINOMEscan Max service)
Method: as §1

ULK2 = molecular target: T11, ULK2 (Homo sapiens, UniProt Q8IYT8)
T11 construct: purchased Ambit (KINOMEscan Max service)
Method: as §1

ACVR2A = molecular target: T12, ACVR2A (Homo sapiens, UniProt P27037)
T12 construct: DNA tag (qPCR label); purchased Ambit Kinomescan (contract screening)
Method: as §1

PRP4 = molecular target: T13, PRP4 (Homo sapiens, UniProt Q13523)
T13 construct: purchased Ambit (KINOMEscan Max service)
Method: as §1

BMPR1A = molecular target: T14, BMPR1A (Homo sapiens, UniProt P36894)
T14 construct: DNA tag (qPCR label); purchased Ambit Kinomescan (contract screening)
Method: as §1

SGK3 = molecular target: T15, SGK3 (Homo sapiens, UniProt Q96BR1)
T15 construct: DNA tag (qPCR read-out)
Method: as §1

BRAF = molecular target: T16, BRAF (Homo sapiens, UniProt P15056)
T16 construct: DNA tag (qPCR label); purchased Ambit Kinomescan (contract screening)
Method: as §1

[3] = molecular target: T17, JAK2(JH1domain-catalytic) (Homo sapiens, UniProt O60674); details: 1 μM
T17 construct: JAK2(JH1domain-catalytic); purchased Ambit Kinomescan (contract screening)
T17 sequence (O60674 849-1124 limits assumed): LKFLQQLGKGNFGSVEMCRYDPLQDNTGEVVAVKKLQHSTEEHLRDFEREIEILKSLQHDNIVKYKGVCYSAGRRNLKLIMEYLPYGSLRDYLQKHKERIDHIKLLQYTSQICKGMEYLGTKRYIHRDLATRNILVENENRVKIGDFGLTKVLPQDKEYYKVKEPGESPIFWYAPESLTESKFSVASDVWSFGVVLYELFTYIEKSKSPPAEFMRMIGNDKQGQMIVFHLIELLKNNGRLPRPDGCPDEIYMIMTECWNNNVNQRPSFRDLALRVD
Method: as §1

DAPK1 = molecular target: T18, DAPK1 (Homo sapiens, UniProt P53355)
T18 construct: DNA tag (qPCR read-out)
T18 sequence (P53355 whole entry): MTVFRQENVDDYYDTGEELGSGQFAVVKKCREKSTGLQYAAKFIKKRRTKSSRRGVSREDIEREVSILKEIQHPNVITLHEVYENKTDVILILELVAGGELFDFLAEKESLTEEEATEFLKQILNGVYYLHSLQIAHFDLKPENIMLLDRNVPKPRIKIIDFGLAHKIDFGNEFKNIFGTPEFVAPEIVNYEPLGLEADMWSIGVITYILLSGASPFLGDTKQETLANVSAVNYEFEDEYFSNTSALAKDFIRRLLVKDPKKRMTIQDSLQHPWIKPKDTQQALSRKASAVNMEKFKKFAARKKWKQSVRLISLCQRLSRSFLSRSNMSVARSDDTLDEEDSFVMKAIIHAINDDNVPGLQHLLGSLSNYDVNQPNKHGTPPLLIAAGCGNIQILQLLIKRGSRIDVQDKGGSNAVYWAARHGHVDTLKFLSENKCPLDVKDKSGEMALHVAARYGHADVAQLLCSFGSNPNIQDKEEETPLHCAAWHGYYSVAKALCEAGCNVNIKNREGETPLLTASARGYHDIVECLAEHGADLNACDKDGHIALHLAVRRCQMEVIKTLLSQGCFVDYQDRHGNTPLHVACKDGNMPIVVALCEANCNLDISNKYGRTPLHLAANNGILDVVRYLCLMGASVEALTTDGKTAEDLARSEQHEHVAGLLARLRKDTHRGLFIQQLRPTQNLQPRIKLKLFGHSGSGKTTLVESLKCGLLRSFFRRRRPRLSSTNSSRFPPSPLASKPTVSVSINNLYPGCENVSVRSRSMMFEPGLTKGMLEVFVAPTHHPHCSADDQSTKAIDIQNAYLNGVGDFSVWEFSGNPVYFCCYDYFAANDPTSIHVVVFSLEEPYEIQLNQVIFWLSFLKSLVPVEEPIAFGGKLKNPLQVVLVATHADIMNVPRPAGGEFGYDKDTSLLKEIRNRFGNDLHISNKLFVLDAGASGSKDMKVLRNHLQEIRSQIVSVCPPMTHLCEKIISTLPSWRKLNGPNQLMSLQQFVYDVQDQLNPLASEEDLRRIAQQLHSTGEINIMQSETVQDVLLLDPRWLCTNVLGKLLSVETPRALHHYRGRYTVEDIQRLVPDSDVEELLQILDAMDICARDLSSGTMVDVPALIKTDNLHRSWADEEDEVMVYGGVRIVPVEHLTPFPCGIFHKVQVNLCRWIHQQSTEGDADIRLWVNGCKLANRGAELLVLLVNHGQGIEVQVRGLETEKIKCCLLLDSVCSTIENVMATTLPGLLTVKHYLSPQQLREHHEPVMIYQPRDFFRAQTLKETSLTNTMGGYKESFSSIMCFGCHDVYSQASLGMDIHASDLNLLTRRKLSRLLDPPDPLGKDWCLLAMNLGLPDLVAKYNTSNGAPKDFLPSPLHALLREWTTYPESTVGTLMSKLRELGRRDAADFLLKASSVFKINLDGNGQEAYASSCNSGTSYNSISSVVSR
Method: as §1

CIT = CIT (Homo sapiens, UniProt O14578); details: 1 μM
CIT, sequence (O14578 whole entry): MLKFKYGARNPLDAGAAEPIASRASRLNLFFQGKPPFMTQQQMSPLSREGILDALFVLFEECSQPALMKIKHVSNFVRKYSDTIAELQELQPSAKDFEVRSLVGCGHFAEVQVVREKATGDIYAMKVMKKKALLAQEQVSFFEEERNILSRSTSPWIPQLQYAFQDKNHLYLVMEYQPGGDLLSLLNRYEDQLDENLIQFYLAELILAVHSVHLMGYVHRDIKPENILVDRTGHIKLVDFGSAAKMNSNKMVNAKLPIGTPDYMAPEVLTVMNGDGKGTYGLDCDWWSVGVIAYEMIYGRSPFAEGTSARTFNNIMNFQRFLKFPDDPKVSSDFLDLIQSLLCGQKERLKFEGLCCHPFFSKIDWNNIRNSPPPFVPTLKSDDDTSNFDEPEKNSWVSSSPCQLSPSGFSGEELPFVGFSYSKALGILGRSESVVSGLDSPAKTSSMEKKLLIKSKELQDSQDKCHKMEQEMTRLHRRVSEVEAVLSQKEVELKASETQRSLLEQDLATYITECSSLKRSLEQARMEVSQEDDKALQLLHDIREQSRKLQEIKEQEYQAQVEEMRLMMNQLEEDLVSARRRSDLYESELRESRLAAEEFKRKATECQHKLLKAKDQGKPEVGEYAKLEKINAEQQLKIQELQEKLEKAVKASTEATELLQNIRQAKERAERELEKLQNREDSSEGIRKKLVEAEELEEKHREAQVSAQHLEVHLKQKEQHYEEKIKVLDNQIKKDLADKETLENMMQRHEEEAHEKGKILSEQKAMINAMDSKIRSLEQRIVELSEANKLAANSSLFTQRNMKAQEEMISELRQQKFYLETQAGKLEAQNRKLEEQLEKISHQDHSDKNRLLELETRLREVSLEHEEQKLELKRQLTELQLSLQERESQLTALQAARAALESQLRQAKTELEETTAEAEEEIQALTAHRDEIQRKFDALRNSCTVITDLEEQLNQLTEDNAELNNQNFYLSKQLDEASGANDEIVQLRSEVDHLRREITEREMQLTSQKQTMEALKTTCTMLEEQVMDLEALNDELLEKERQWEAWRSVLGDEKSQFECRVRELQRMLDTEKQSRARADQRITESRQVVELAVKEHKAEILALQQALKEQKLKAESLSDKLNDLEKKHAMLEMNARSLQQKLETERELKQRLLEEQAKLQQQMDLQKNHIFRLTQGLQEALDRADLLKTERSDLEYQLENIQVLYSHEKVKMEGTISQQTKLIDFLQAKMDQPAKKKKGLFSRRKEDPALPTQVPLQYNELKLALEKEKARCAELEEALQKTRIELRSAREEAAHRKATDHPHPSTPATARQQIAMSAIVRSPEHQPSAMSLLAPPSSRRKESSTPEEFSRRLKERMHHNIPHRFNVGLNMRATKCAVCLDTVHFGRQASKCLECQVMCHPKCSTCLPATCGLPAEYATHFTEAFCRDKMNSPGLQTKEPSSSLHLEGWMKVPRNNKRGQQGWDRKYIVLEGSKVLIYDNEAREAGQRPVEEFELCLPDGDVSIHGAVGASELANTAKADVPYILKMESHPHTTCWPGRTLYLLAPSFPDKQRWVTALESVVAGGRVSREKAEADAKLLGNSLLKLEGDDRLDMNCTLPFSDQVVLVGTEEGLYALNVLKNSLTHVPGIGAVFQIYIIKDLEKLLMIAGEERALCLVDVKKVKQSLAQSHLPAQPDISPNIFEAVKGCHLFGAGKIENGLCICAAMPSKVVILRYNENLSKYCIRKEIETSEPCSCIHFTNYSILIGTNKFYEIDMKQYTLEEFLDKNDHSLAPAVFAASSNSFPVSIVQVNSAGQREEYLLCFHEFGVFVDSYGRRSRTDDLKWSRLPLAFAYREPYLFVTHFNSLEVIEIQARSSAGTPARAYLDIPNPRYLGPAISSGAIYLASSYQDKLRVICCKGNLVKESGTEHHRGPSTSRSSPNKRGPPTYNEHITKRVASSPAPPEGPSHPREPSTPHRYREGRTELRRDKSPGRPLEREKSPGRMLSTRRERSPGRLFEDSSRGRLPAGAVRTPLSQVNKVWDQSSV
Method: as §1

CLK4 = molecular target: T19, CLK4 (Homo sapiens, UniProt Q9HAZ1)
T19 construct: DNA tag (qPCR read-out); purchased Ambit Kinomescan
Method: as §1

RET(V804M) = molecular target: T20, RET(V804M) (Homo sapiens, UniProt P07949, V804M)
T20 construct: DNA tag (qPCR read-out)
Method: as §1

MAP4K3 = molecular target: T21, MAP4K3 (Homo sapiens, UniProt Q8IVH8); details: 1 μM
T21 construct: purchased Ambit (KINOMEscan Max service)
Method: as §1

CASK = CASK (Homo sapiens, UniProt O14936)
Method: as §1

CSNK1G1 = molecular target: T22, CSNK1G1 (Homo sapiens, UniProt Q9HCP0); details: 1 μM
T22 construct: purchased Ambit (KINOMEscan Max panel service)
Method: as §1

ROCK2 = molecular target: T23, ROCK2 (Homo sapiens, UniProt O75116)
T23 construct: purchased Ambit (KINOMEscan Max service)
Method: as §1

LZK = molecular target: T24, LZK (Homo sapiens, UniProt O43283); details: 1 μM
T24 construct: purchased Ambit Kinomescan (contract panel)
Method: as §1

TXK = TXK (Homo sapiens, UniProt P42681)
Method: as §1

HPK1 = molecular target: T25, HPK1 (Homo sapiens, UniProt Q92918)
T25 construct: purchased Ambit Kinomescan (contract panel, KINOMEscan Max)
T25 sequence (Q92918 whole entry): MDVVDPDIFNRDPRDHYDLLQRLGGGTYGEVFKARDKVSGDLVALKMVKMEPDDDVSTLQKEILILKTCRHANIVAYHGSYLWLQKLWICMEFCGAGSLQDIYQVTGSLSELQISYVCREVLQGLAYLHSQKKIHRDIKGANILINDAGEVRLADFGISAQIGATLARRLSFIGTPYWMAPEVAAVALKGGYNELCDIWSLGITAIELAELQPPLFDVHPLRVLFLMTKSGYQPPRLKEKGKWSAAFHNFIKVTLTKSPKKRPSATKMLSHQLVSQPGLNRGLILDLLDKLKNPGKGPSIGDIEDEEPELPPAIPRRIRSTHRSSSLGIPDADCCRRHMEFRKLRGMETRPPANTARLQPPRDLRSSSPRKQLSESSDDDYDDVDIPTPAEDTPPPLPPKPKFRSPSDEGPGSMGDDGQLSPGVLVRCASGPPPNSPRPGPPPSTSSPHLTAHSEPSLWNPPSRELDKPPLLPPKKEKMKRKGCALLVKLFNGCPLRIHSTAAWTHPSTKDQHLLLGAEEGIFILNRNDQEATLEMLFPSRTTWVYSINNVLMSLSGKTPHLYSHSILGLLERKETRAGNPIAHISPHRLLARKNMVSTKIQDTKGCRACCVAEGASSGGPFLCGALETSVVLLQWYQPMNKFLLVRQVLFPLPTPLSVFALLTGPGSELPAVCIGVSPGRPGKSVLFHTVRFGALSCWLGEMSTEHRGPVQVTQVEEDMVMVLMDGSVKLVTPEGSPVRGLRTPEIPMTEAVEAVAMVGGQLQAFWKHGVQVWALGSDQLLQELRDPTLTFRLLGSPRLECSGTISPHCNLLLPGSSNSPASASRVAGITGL
Method: as §1

SRMS = molecular target: T26, SRMS (Homo sapiens, UniProt Q9H3Y6)
T26 construct: DNA tag (qPCR read-out)
Method: as §1

NCCCNc1nc2c(Br)c(Br)c(Br)c(Br)c2[nH]1 [Compound 11, N-(3-aminopropyl)-4,5,6,7-tetrabromo-1H-benzo[d]imidazol-2-amine]
remaining binding at 1 µM (IKK-epsilon): 100% | remaining binding at 1 µM (NEK6): 100% | % binding [1]: 100% | remaining binding at 1 µM (TSSK1B): 100% | remaining binding at 1 µM (ERK3): 75% | remaining binding at 1 µM (MAPKAPK5): 100% | remaining binding at 1 µM (NIM1): 99% | remaining binding at 1 µM (EPHA4): 100% | remaining binding at 1 µM (BRSK1): 100% | % binding (ITK): 100% | remaining binding at 1 µM [2]: 100% | remaining binding at 1 µM (MLK1): 100% | remaining binding at 1 µM (NEK7): 86% | remaining binding at 1 µM (MAP4K4): 98% | % binding (MET(Y1235D)): 70% | remaining binding at 1 µM (ULK2): 60% | remaining binding at 1 µM (ACVR2A): 100% | remaining binding at 1 µM (PRP4): 84% | remaining binding at 1 µM (BMPR1A): 100% | remaining binding at 1 µM (SGK3): 100% | remaining binding at 1 µM (BRAF): 100% | % binding [3]: 98% | remaining binding at 1 µM (DAPK1): 90% | % binding (CIT): 93% | remaining binding at 1 µM (CLK4): 22% | remaining binding at 1 µM (RET(V804M)): 100% | % binding (MAP4K3): 85% | remaining binding at 1 µM (CASK): 94% | % binding (CSNK1G1): 100% | remaining binding at 1 µM (ROCK2): 71% | % binding (LZK): 100% | remaining binding at 1 µM (TXK): 93% | remaining binding at 1 µM (HPK1): 100% | remaining binding at 1 µM (SRMS): 100%

Reference: patent publication US20110230481A2, “DERIVATIVES OF TETRABROMOBENZIMIDAZOLE, A PROCESS FOR THE PREPARATION THEREOF, A PHARMACEUTICAL COMPOSITION COMPRISING THE SAME, A METHOD OF USING THE SAME, A METHOD FOR MODULATING OR REGULATING SERINE/THREONINE KINASES, AND SERINE/THREONINE KINASES MODULATING AGENT” (SELVITA S.A., priority 2009, published 2011)
